Experimental data reported in ChEMBL document CHEMBL1201862, “PubChem BioAssay data set” (2004).
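Five concentrations, 48 hours, 96-well plates. Here, GI50 denotes the concentration required for 50% inhibition of growth.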 The source made the active and inactive calls. No stated cut-off is given here; in the data, active = GI50 up to about 1.1 µM and inactive = higher.

Columns and labels:
Assay in all cases: DTP human tumour cell line panel, 48 h
SK-MEL-5 = tested on: SK-MEL-5
Malme-3M = tested on: Malme-3M
HL-60 = tested on: HL-60
UO-31 = tested on: UO-31
SF-295 = tested on: SF-295
HOP-92 = tested on: HOP-92
NCI-H23 = tested on: NCI-H23
NCI-H522 = tested on: NCI-H522
TK-10 = tested on: TK-10
MDA-N = tested on: MDA-N
IGROV-1 = tested on: IGROV-1
SN12C = tested on: SN12C
MCF7 = tested on: MCF7
786-0 = tested on: 786-0
OVCAR-5 = tested on: OVCAR-5
SW-620 = tested on: SW-620
A498 = tested on: A498
NCI-H226 = tested on: NCI-H226
SK-MEL-28 = tested on: SK-MEL-28

Measured: GI50

Cc1ccc([S+]([O-])(=Nc2ccccc2)C(C(C)C)C(C)(C)Cl)cc1 (stereo not drawn)
inactive: SK-MEL-5 4.06 µM | Malme-3M 27.9 µM | HL-60 7.67 µM | UO-31 18.8 µM | SF-295 16.3 µM | HOP-92 30.1 µM | NCI-H23 9.91 µM | NCI-H522 16 µM | TK-10 21.4 µM | MDA-N 16 µM | IGROV-1 > 50 µM | SN12C 22.4 µM | MCF7 20.6 µM | 786-0 24.2 µM | OVCAR-5 22.1 µM | SW-620 20.9 µM | A498 18.5 µM | NCI-H226 2.72 µM

Fc1ccc(C(OCCN2CCC3CCC(C2)N3C/C=C/c2cccnc2)c2ccc(F)cc2)cc1 (stereo not drawn)
inactive: SK-MEL-5 4.01 µM | Malme-3M 4.08 µM | UO-31 1.88 µM | SK-MEL-28 2.24 µM | SF-295 9.23 µM | HOP-92 13.4 µM | NCI-H23 12.8 µM | NCI-H522 13.6 µM | TK-10 11.5 µM | MDA-N 11.6 µM | IGROV-1 13.3 µM | SN12C 13.1 µM | MCF7 11 µM | 786-0 5.27 µM | OVCAR-5 13.8 µM | SW-620 10.1 µM | A498 14.3 µM | NCI-H226 12.1 µM

COc1cccc2c(Nc3ccc(S(=O)(=O)N=C(N)N)cc3)c3ccc([N+](=O)[O-])cc3nc12
inactive: SK-MEL-5 11.6 µM | Malme-3M 10.7 µM | UO-31 16.3 µM | SK-MEL-28 35.2 µM | SF-295 29.4 µM | HOP-92 12.3 µM | NCI-H23 14.7 µM | NCI-H522 6.71 µM | TK-10 25.6 µM | MDA-N 17.6 µM | IGROV-1 8.2 µM | SN12C 30 µM | MCF7 4.09 µM | 786-0 11.5 µM | OVCAR-5 44.6 µM | SW-620 16.7 µM | A498 19.1 µM | NCI-H226 38.8 µM

Clc1ccc(-c2cc3nc4ccccc4nc3o2)cc1
inactive: SK-MEL-5 > 100 µM | Malme-3M > 100 µM | HL-60 > 100 µM | UO-31 > 100 µM | SK-MEL-28 > 100 µM | SF-295 58.7 µM | HOP-92 47.2 µM | NCI-H23 > 100 µM | TK-10 32.7 µM | MDA-N > 100 µM | IGROV-1 62.8 µM | MCF7 64.4 µM | 786-0 37.1 µM | OVCAR-5 > 100 µM | SW-620 > 100 µM | A498 > 100 µM | NCI-H226 > 100 µM

CC(=O)Oc1ccn2nc(C)c(Br)c2c1
inactive: SK-MEL-5 42.6 µM | Malme-3M 64.1 µM | HL-60 25.9 µM | SK-MEL-28 > 100 µM | SF-295 > 100 µM | HOP-92 > 87.1 µM | NCI-H23 > 58.2 µM | NCI-H522 28.8 µM | TK-10 > 100 µM | MDA-N 49.3 µM | IGROV-1 > 100 µM | SN12C > 100 µM | MCF7 47.8 µM | 786-0 > 100 µM | OVCAR-5 > 100 µM | SW-620 > 100 µM | A498 > 100 µM | NCI-H226 > 100 µM

O=C(CCCCCCCCC(=O)NN1C(=O)/C(=C\c2ccc(O)c(O)c2)SC1c1c(O)ccc2ccccc12)NN1C(=O)C(=Cc2ccc(O)c(O)c2)SC1c1c(O)ccc2ccccc12 (stereo not drawn)
inactive: SK-MEL-5 1.93 µM | Malme-3M 5.24 µM | UO-31 3.39 µM | SK-MEL-28 10 µM | SF-295 3.86 µM | HOP-92 8.47 µM | NCI-H23 9.35 µM | NCI-H522 5.75 µM | TK-10 > 50.7 µM | MDA-N > 41.7 µM | IGROV-1 8.51 µM | SN12C 27.2 µM | MCF7 10.1 µM | 786-0 3.46 µM | OVCAR-5 > 49.5 µM | SW-620 7.64 µM | A498 22.8 µM | NCI-H226 6.08 µM

c1cc(-c2ccc(-c3ccsc3)s2)cs1
inactive: SK-MEL-5 > 100 µM | HL-60 19.2 µM | UO-31 28.1 µM | SF-295 54 µM | HOP-92 > 100 µM | NCI-H23 16.2 µM | NCI-H522 > 100 µM | TK-10 76.4 µM | MDA-N > 100 µM | IGROV-1 80.2 µM | SN12C > 100 µM | MCF7 50.5 µM | 786-0 36.1 µM | OVCAR-5 > 100 µM | SW-620 44.3 µM | A498 46.6 µM | NCI-H226 47.5 µM

O=C1CSC(c2ccccc2)N1c1ccc(-c2ccc(-n3c(-c4ccccc4)nc4ccccc4c3=O)cc2)cc1 (stereo not drawn)
inactive: SK-MEL-5 25.2 µM | Malme-3M 35.4 µM | HL-60 27.4 µM | UO-31 49.8 µM | SK-MEL-28 > 100 µM | SF-295 64.3 µM | HOP-92 > 100 µM | NCI-H23 57.1 µM | NCI-H522 47.8 µM | TK-10 57.9 µM | MDA-N 64.9 µM | IGROV-1 > 100 µM | SN12C > 100 µM | MCF7 35.1 µM | 786-0 55 µM | OVCAR-5 > 100 µM | SW-620 97.7 µM | A498 > 100 µM

NN/C(=N\S(=O)(=O)c1cc(S(=O)(=O)c2ccccc2)cs1)Nc1ccc(Cl)cc1
inactive: SK-MEL-5 16.9 µM | HL-60 4.58 µM | UO-31 28.8 µM | SK-MEL-28 35.2 µM | SF-295 17.6 µM | HOP-92 33.3 µM | NCI-H23 23.8 µM | NCI-H522 13.2 µM | TK-10 24.8 µM | MDA-N 20.5 µM | IGROV-1 25.9 µM | SN12C 28.4 µM | MCF7 32.4 µM | 786-0 35.2 µM | OVCAR-5 66.2 µM | SW-620 47.5 µM | A498 33.8 µM | NCI-H226 33.1 µM

OC1(c2ccccc2)CSc2ncnn21 (stereo not drawn)
inactive: SK-MEL-5 > 100 µM | Malme-3M > 100 µM | HL-60 > 100 µM | UO-31 > 100 µM | SF-295 > 100 µM | HOP-92 > 100 µM | NCI-H23 > 100 µM | NCI-H522 > 100 µM | TK-10 > 100 µM | MDA-N > 100 µM | IGROV-1 > 100 µM | SN12C > 100 µM | MCF7 > 100 µM | 786-0 > 100 µM | SW-620 > 100 µM | A498 > 100 µM | NCI-H226 > 100 µM

O=c1c2c3c(sc2nc2n1N=CN(c1ccc(Cl)cc1)C2)CCCC3
inactive: SK-MEL-5 44.8 µM | Malme-3M 16.2 µM | UO-31 > 100 µM | SK-MEL-28 > 100 µM | SF-295 70.1 µM | HOP-92 8.47 µM | NCI-H23 > 100 µM | NCI-H522 10.5 µM | TK-10 > 100 µM | MDA-N 56.6 µM | IGROV-1 > 100 µM | SN12C > 100 µM | MCF7 > 100 µM | 786-0 19.3 µM | OVCAR-5 > 100 µM | SW-620 > 100 µM | A498 4.12 µM | NCI-H226 42.3 µM

CC1=CC(=O)/C(=C/NC(=S)Nc2ccc(S(N)(=O)=O)cc2)C(=O)O1
inactive: SK-MEL-5 > 100 µM | HL-60 > 100 µM | UO-31 > 100 µM | SK-MEL-28 > 100 µM | SF-295 > 100 µM | HOP-92 > 100 µM | NCI-H23 > 100 µM | TK-10 > 100 µM | MDA-N > 100 µM | IGROV-1 > 100 µM | SN12C > 100 µM | MCF7 > 100 µM | 786-0 > 100 µM | OVCAR-5 > 100 µM | SW-620 > 100 µM | A498 > 100 µM | NCI-H226 > 100 µM

N#Cc1c(N2CCOCC2)ncn(-c2ccccc2)c1=O
inactive: SK-MEL-5 > 100 µM | HL-60 3.08 µM | UO-31 59.4 µM | SK-MEL-28 > 100 µM | SF-295 > 100 µM | HOP-92 > 100 µM | NCI-H23 > 100 µM | MDA-N > 100 µM | IGROV-1 63.4 µM | SN12C > 100 µM | MCF7 > 100 µM | 786-0 > 100 µM | OVCAR-5 > 100 µM | SW-620 > 100 µM | A498 > 100 µM | NCI-H226 > 100 µM

Cc1ccc(C(=O)c2[nH]c(Nc3ccc(Cl)cc3)c(C(=S)Nc3ccccc3)c2N)cc1
inactive: Malme-3M 4.17 µM | HL-60 44.4 µM | UO-31 9.14 µM | SK-MEL-28 4.21 µM | SF-295 2.13 µM | HOP-92 12.9 µM | NCI-H23 3.14 µM | NCI-H522 9.68 µM | TK-10 5.36 µM | MDA-N 6.73 µM | IGROV-1 4.41 µM | SN12C 13.1 µM | MCF7 12.5 µM | 786-0 2.74 µM | OVCAR-5 11 µM | SW-620 11.5 µM | A498 13.6 µM | NCI-H226 14 µM

O=C1N2CCN=C2c2ccccc2C1(O)c1ccccc1 (stereo not drawn)
inactive: SK-MEL-5 > 100 µM | HL-60 > 100 µM | UO-31 > 100 µM | SK-MEL-28 > 100 µM | SF-295 > 100 µM | HOP-92 > 100 µM | NCI-H23 > 100 µM | TK-10 > 100 µM | MDA-N > 100 µM | IGROV-1 > 100 µM | SN12C > 100 µM | MCF7 > 100 µM | 786-0 > 100 µM | OVCAR-5 > 100 µM | SW-620 > 100 µM | A498 > 100 µM | NCI-H226 > 100 µM
